Earlier results as cited in patent US9198430B2, “Anti-parasitic composition comprising a macrocyclic lactone and levamisole and method of treatment of parasitic infestation” (BAYER NEW ZEALAND LIMITED, priority 2011, dated 2015).
Read-outs that look alike come from different tables or passages of the source.

Details: unlabelled doramectin 0.2 mg/kg bodyweight

## CO[C@H]1C[C@H](O[C@H]2[C@H](C)O[C@@H](O[C@@H]3/C(C)=C/C[C@@H]4C[C@@H](C[C@]5(C=C[C@H](C)[C@@H](C6CCCCC6)O5)O4)OC(=O)[C@@H]4C=C(C)[C@@H](O)[C@H]5OC/C(=C\C=C\[C@@H]3C)[C@]54O)C[C@@H]2OC)O[C@@H](C)[C@@H]1O [doramectin, Doramectin]
Day 21
  Residues of Doramectin, Fat: 182 µg/kg
  Residues of Doramectin, Injection (site): 1900 µg/kg
  Residues of Doramectin, Kidney: 11 µg/kg
  Residues of Doramectin, Liver: 107 µg/kg
  Residues of Doramectin, Muscle: <7 µg/kg
Day 28
  Residues of Doramectin, Fat: 94 µg/kg
  Residues of Doramectin, Injection (site): 380 µg/kg
  Residues of Doramectin, Kidney: 8.8 µg/kg
  Residues of Doramectin, Liver: 66 µg/kg
  Residues of Doramectin, Muscle: <4 µg/kg
Day 35
  Residues of Doramectin, Fat: 57 µg/kg
  Residues of Doramectin, Injection (site): 930 µg/kg
  Residues of Doramectin, Kidney: <4.5 µg/kg
  Residues of Doramectin, Liver: 29 µg/kg
  Residues of Doramectin, Muscle: <3 µg/kg
